Patent publication US11166460B2, “α-amino acrylate microbicide, and preparation method therefor and uses thereof” (priority 2017, dated 2021)
Read-outs that look alike come from different tables or passages of the source.

Key:
[1] = tested on: tobacco mosaic virus (TMV); test: Anti-TMV curative activity (treatment mode), live friction inoculation on tobacco seedlings; format: in vivo; details: Tobacco mosaic virus, read-out: Anti-TMV activity, Curative effect (inhibition), 100 μg/mL, tobacco seedlings, checked on seventh day
[2] = tested on: tobacco mosaic virus (TMV); test: Anti-TMV inactivation activity (inactivation mode), compound mixed with TMV before inoculation of tobacco leaves; format: in vivo; details: Tobacco mosaic virus, read-out: Anti-TMV activity, Inactivation effect (inhibition)
[3] = tested on: tobacco mosaic virus (TMV); test: Anti-TMV protective activity (protection mode), live friction inoculation on tobacco seedlings; format: in vivo; details: Tobacco mosaic virus, read-out: Anti-TMV activity, Protection effect (inhibition)
[4] = tested on: tobacco mosaic virus (TMV); test: Anti-TMV inducing activity (induction mode), tobacco seedlings; format: in vivo; details: Tobacco mosaic virus, read-out: Anti-TMV activity, Induction effect (inhibition), 100 μg/mL, tobacco seedlings
Alternaria solani = test: Fungicidal activity, fungi growth rate method, AS; format: cell-based; details: Alternaria solani, 50 μg/mL
Botrytis cinerea = test: Fungicidal activity, fungi growth rate method, BC; format: cell-based; details: Botrytis cinerea, 50 μg/mL
Cercospora arachidicola = test: Fungicidal activity, fungi growth rate method, CA; format: cell-based; details: Mycosphaerella arachidis, 50 μg/mL
wheat Gibberella zeae = test: microbe, parasite or virus in culture; format: cell-based; details: Fusarium graminearum
[5] = tested on: Phytophthora infestans (Mont) de Bary; test: microbe, parasite or virus in culture; format: cell-based; details: Phytophthora infestans
Physalospora piricola = test: Fungicidal activity, fungi growth rate method, PP; format: cell-based; details: 50 μg/mL
Pellicularia sasakii = test: Fungicidal activity, fungi growth rate method, PS; format: cell-based; details: 50 μg/mL
Rhizoctonia cerealis = test: Fungicidal activity, fungi growth rate method, RC; format: cell-based; details: Ceratobasidium cereale, 50 μg/mL
Sclerotinia sclerotiorum = test: microbe, parasite or virus in culture; format: cell-based; details: Sclerotinia sclerotiorum, 50 μg/mL
[6] = read-out: Fungicidal activity, inhibition, AS
[7] = read-out: Fungicidal activity (inhibition) against BC: Botrytis cinerea
[8] = read-out: Fungicidal activity, inhibition, BC
[9] = read-out: Fungicidal activity, inhibition, CA
[10] = read-out: Fungicidal activity, inhibition, GZ
[11] = read-out: Fungicidal activity (inhibition) against PI: Phytophthora infestans (Mont) de Bary
[12] = read-out: Fungicidal activity, inhibition, PI
[13] = read-out: Fungicidal activity, inhibition, PP
[14] = read-out: Fungicidal activity (inhibition) against PS: Pellicularia sasakii
[15] = read-out: Fungicidal activity, inhibition, PS
[16] = read-out: Fungicidal activity, inhibition, RC
[17] = read-out: Fungicidal activity, inhibition, SS
[18] = read-out: Fungicidal activity (inhibition) against RC: Rhizoctonia cerealis
[19] = read-out: Fungicidal activity (inhibition) against SS: Sclerotinia sclerotiorum

Compound | inhibition at 100 µg/mL [1] | inhibition at 100 µg/mL [2] | inhibition at 100 µg/mL [3] | inhibition at 100 µg/mL [4] | inhibition at 50 µg/mL (Alternaria solani; [6]) | inhibition at 50 µg/mL (Botrytis cinerea; [7]) | inhibition at 50 µg/mL (Botrytis cinerea; [8]) | inhibition at 50 µg/mL (Cercospora arachidicola; [9]) | inhibition at 50 µg/mL (wheat Gibberella zeae; [10]) | inhibition at 50 µg/mL [5, 11] | inhibition at 50 µg/mL [5, 12] | inhibition at 50 µg/mL (Physalospora piricola; [13]) | inhibition at 50 µg/mL (Pellicularia sasakii; [14]) | inhibition at 50 µg/mL (Pellicularia sasakii; [15]) | inhibition at 50 µg/mL (Rhizoctonia cerealis; [16]) | inhibition at 50 µg/mL (Sclerotinia sclerotiorum; [17]) | melting point | inhibition at 50 µg/mL (Sclerotinia sclerotiorum; [19]) | further results
Cc1nnsc1/C=C(\NC(=O)c1ccccc1)C(=O)N1CCC(O)(c2ccc(Br)cc2)CC1 [Compound 27, (Z)-N-[1-[[4-(4-bromophenyl)-4-hydroxy-1-piperidinyl]carbonyl]-2-[5-(4-methyl-1,2,3-thiadiazol)]ethenyl]benzamide] | 3% | 34% | 37% | 0% | 21% | ~20% | 26% | 12% | 57% | ~20% | 24% | 12% | ~20% | 20% | 23% | 47% | 212 to 214 °C | – | –
Cc1snnc1/C=C(\NC(=O)c1ccccc1)C(=O)N1CCC(O)(c2ccc(Br)cc2)CC1 [Compound 28, (Z)-N-[1-[[4-(4-bromophenyl)-4-hydroxy-1-piperidinyl]carbonyl]-2-[4-(5-methyl-1,2,3-thiadiazol)]ethenyl]benzamide] | 43% | 3% | 36% | 4% | 32% | ~20% | 24% | 27% | 77% | ~20% | 19% | 29% | ~20% | 27% | 62% | 75% | 231 to 233 °C | 60 to 80% | inhibition at 50 µg/mL (Rhizoctonia cerealis; [18]): 62%
CC(C)(C)OC(=O)N1CCC(c2nc(/C=C(\NC(=O)c3ccccc3)C(=O)N3CCC(O)(c4ccc(Br)cc4)CC3)cs2)CC1 [Compound 29, (Z)-N-[1-[[4-(4-bromophenyl)-4-hydroxy-1-piperidinyl]carbonyl]-2-[4-[2-[4-(1-Boc-piperidine)]thiazol]]ethenyl]benzamide] | 36% | 0% | 0% | 2% | 6% | – | 7% | 13% | 3% | – | 14% | 0% | – | 11% | 10% | 67% | 166 to 168 °C | – | –
CCOC(=O)c1csc(C2CCN(C(=O)/C(=C/c3ccccc3)NC(=O)c3ccccc3)CC2)n1 [Compound 30, (Z)-N-[1-[[[4-[2-(ethylthiazole-4-carboxylate)]]-1-piperidinyl]carbonyl]-2-phenylethenyl]benzamide] | 3% | 0% | 0% | 2% | 13% | – | 17% | 7% | 11% | – | 9% | 2% | – | 13% | 4% | 82% | 114 to 115 °C | 80 to 95% | –
O=C(N/C(=C\c1ccccc1)C(=O)N1CCC(c2nc(CO)cs2)CC1)c1ccccc1 [Compound 31, (Z)-N-[1-[[[4-[2-(4-hydroxymethylthiazol)]]-1-piperidinyl]carbonyl]-2-phenylethenyl]benzamide] | 0% | 0% | 0% | 33% | 21% | – | 7% | 23% | 7% | – | 24% | 0% | – | 5% | 16% | 56% | 118 to 120 °C | – | –
CNC(=O)/C(=C/c1ccccc1)NC(=O)c1ccccc1 [Compound 32, (Z)-N-[1-[(methylamino)carbonyl]-2-phenylethenyl]benzamide] | 0% | 25% | 58% | 10% | 5% | ≤ 20% | 11% | 16% | 6% | < 25% | 16% | 12% | < 30% | 13% | 4% | 80% | 185 to 187 °C | 80% | inhibition at 50 µg/mL (Alternaria solani; read-out: Fungicidal activity (inhibition) against AS: Alternaria solani): < 30%; inhibition at 50 µg/mL (Cercospora arachidicola; read-out: Fungicidal activity (inhibition) against CA: Cercospora arachidicola): < 25%; inhibition at 50 µg/mL (wheat Gibberella zeae; read-out: Fungicidal activity (inhibition) against GZ: wheat Gibberella zeae): < 45%; inhibition at 50 µg/mL (Physalospora piricola; read-out: Fungicidal activity (inhibition) against PP: Physalospora piricola): < 20%; inhibition at 50 µg/mL (Rhizoctonia cerealis; [18]): < 20%
CONC(=O)/C(=C/c1ccccc1)NC(=O)c1ccccc1 [Compound 33, (Z)-N-[1-[(methoxylamino)carbonyl]-2-phenylethenyl]benzamide] | 3% | 0% | 1% | 45% | 21% | – | 22% | 13% | 0% | – | 8% | 3% | – | 5% | 10% | 17% | 166 to 168 °C | – | –
COC(=O)[C@H](C)NC(=O)/C(=C/c1ccccc1)NC(=O)c1ccccc1 [Compound 34, (S,Z)-N-[1-[[1-(2-methyl propanoate)amino]carbonyl]-2-phenylethenyl]benzamide] | 0% | 0% | 0% | 50% | 21% | – | 24% | 16% | 16% | – | 5% | 0% | – | 0% | 3% | 56% | 147 to 148 °C | – | –
